What is called IC50 is the midpoint of a concentration-inhibition curve.

SMILES strings stand for the structures.

Results on four compounds are retold here after patent publication US11072634B2, “Inhibitors of transglutaminases” (Zedira GmbH, priority 2016, dated 2021).

Assay [1] deals with T1, recombinant human tissue transglutaminase (rhTG2) (Homo sapiens, UniProt P21980).
T1 construct: purchased Zedira 1022 (so in the source); T022)
T1 sequence (P21980 1-687): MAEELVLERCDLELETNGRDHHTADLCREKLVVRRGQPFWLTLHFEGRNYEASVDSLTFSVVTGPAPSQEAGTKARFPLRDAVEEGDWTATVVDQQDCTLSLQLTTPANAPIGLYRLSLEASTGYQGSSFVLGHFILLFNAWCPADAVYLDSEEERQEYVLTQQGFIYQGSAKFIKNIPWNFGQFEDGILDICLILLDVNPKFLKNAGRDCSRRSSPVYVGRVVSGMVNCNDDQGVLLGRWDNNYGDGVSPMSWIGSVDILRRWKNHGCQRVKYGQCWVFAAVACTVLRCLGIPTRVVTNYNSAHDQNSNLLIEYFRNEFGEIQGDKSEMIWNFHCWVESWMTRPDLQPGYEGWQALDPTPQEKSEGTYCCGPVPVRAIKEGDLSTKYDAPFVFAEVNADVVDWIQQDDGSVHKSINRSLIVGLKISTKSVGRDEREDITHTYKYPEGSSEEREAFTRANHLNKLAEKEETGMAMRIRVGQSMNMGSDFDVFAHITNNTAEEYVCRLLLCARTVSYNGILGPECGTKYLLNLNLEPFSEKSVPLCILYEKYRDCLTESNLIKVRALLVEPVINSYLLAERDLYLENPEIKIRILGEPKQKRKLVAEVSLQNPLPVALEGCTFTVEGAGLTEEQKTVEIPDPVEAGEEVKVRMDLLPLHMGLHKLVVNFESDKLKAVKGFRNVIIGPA
Nature of the assay: Inhibition of rec. human tissue transglutaminase (fluorescence, Abz-APE(CAD-DNP)QEA-OH). It counts as biochemical. The procedure, abridged:
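His6-rhTG2 in a master mix (50 mM Tris-HCl pH 7.4, 7.5 mM CaCl2, 150 mM NaCl, 5 mM DTT, 13.4 mM glycine methylester, 50 μM Abz-APE(CAD-DNP)QEA-OH) was added to serially diluted inhibitor. Fluorescence (ex 313/em 418 nm) was followed at 37 °C for 20 min. IC50 came from the 10–20 min slope relative to the 2% DMSO control.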

The test system of assay [2] is NRK52E cells. Nature of the assay: Extracellular matrix protein deposition of NRK52E cells (DC-protein-assay). It counts as cell-based, Rattus norvegicus. The note with it: hyperglycemic glucose concentrations. As to the method: Fibrosis is a hallmark in diabetic nephropathy and chronic kidney diseases. Proximal tubular epithelial cells show increased TG2 activity and increased extracellular matrix proteins (ECM) accumulation under hyperglycemic conditions. ECM accumulation is a hall mark of fibrosis. […] TG2-activity and ECM-accumulation was measured. Rattus norvegicus kidney derived cell line NRK52E was grown at 37° C. in a humidified atmosphere at 5% (v/v) CO2 in DMEM (Dulbecco's modified Eagle's medium) containing 100 μg/mL streptomycin, 100 units/ml penicillin, […], and 10% (v/v) fetal calf serum. For simulation of normal physiological conditions 6 mM D-glucose were added to the medium, while addition of 24 mM and 36 mM D-glucose simulated hyperglycemic conditions. Reversible TG2 inhibitor E06 in the concentrations indicated in FIG. 1A was added at the time of plating to the medium. Reversible TG2 inhibitor E22 in the concentrations indicated in FIG. 2A was added at the time of plating to the medium.
For the determination of extracellular matrix proteins (ECM) deposition, cells grown in 10 cm Petri-dishes were removed with 1 mL sodium deoxycholate (0.1%) -EDTA (2 mM)-solution. ECM proteins remaining on the plate were solubilized by digestion with trypsin (0.2 mg/mL) -EDTA (2 mM) solution. […] Protein concentration was determined using the DC-protein-assay (BioRad, #5000111).

Regarding `CCCCCNC(=O)C(=O)CC[C@H](NC(=O)[C@@H]1CCCN1C(C)=O)C(=O)Nc1cccn(CC(=O)NCC(CC)CC)c1=O` [Compound E22, (S)-2-((S)-1-acetylpyrrolidine-2-carboxamido)-N1-(1-(2-(2-ethylbutylamino)-2-oxoethyl)-2-oxo-1,2-dihydropyridin-3-yl)-5-oxo-N6-pentylhexanediamide], the concentration for half-maximal inhibition (IC50) in assay [1] (Table 2, TG2 inhibitors) worked out at 85 nM. The “increase of ECM (extracellular matrix protein deposition)” value in assay [2] is “reduced in a dose dependent manner”. `CC(=O)N1CCC[C@H]1C(=O)N[C@@H](CCC(=O)C(N)=O)C(=O)N1CCN(c2ncccc2C)CC1` [Compound E07, (S)-1-acetyl-N—((S)-6-amino-1-(4-(3-methylpyridin-2-yl)piperazin-1-yl)-1,5,6-trioxohexan-2-yl)pyrrolidine-2-carboxamide]: in assay [1] (Table 1, TG2 inhibitors), the IC50 is 100 nM. As to `CC(=O)N[C@@H](CCC(=O)C(N)=O)C(=O)N1CCN(c2ccccc2Cl)CC1` [Compound E06, (S)-5-acetamido-6-(4-(2-chlorophenyl)piperazin-1-yl)-2,6-dioxohexanamide], in assay [1] (Table 1, TG2 inhibitors), the IC50 was determined as 100 nM. The “increase of ECM (extracellular matrix protein deposition)” value in assay [2] was “reduced in a dose dependent manner”. As to `COC(=O)[C@H](CC(C)C)NC(=O)[C@@H]1CCCN1C(=O)[C@@H](NC(=O)[C@H](CCC(=O)C(N)=O)NC(=O)OCc1ccccc1)C(C)C` [Compound E02, (S)-methyl 2-((S)-1-((S)-2-((S)-6-amino-2-(benzyloxycarbonylamino)-5,6-dioxo-hexanamido)-3-methylbutanoyl)pyrrolidine-2-carboxamido)-4-methylpentanoate], the IC50 in assay [1] (Table 1, TG2 inhibitors) stood at 70 nM.
